# Source: patent US8227498B2, “Inhibitors of glutaminyl cyclase” (Probiodrug AG, priority 2007, dated 2012)
# Molecular target: glutaminyl cyclase (QC) (Homo sapiens, UniProt Q16769)
# Assay: QC inhibitor assay (fluorometric/spectrophotometric QC activity assays with inhibitory compound added)
# Protocol: All measurements were performed with a BioAssay Reader HTS-7000Plus for microplates (Perkin Elmer) at 30° C. QC activity was evaluated fluorometrically using H-Gln-βNA. The samples consisted of 0.2 mM fluorogenic substrate, 0.25 U pyroglutamyl aminopeptidase (Unizyme, Hørsholm, Denmark) in 0.2 M Tris/HCl, pH 8.0 containing 20 mM EDTA and an appropriately diluted aliquot of QC in a final volume of 250 μl. Excitation/emission wavelengths were 320/410 nm. The assay reactions were initiated by addition of glutaminyl cyclase. QC activity was determined from a standard curve of β-naphthylamine under assay conditions. One unit is defined as the amount of QC catalyzing the formation of 1 μmol pGlu-MNA from H-Gln-βNA per minute under the described conditions.
# In a second fluorometric assay, QC was activity determined using H-Gln-AMC as substrate. Reactions were carried out at 30° C. utilizing the NOVOStar reader for microplates (BMG labtechnologies). The samples consisted of varying concentrations of the fluorogenic substrate, 0.1 U pyroglutamyl aminopeptidase (Qiagen) in 0.05 M Tris/HCl, pH 8.0 containing 5 mM EDTA and an appropriately diluted aliquot of QC in a final volume of 250 μl. Excitation/emission wavelengths were 380/460 nm. The assay reactions were initiated by addition of glutaminyl cyclase. […] The kinetic data were evaluated using GraFit sofware.
# This novel assay was used to determine the kinetic parameters for most of the QC substrates. […] Samples consisted of the respective QC substrate, 0.3 mM NADH, 14 mM α-Ketoglutaric acid and 30 U/ml glutamate dehydrogenase in a final volume of 250 μl.
# The initial velocities were evaluated and the enzymatic activity was determined from a standard curve of ammonia under assay conditions. All samples were measured at 30° C., using either the [sequence]luor Plus or the Sunrise (both from TECAN) reader for microplates. Kinetic data was evaluated using GraFit software.
# For inhibitor testing, the sample composition was the same as described above, except of the putative inhibitory compound added. For a rapid test of QC-inhibition, samples contained 4 mM of the respective inhibitor and a substrate concentration at 1 KM. For detailed investigations of the inhibition and determination of Ki-values, influence of the inhibitor on the auxiliary enzymes was investigated first. […] The inhibitory constant was evaluated by fitting the set of progress curves to the general equation for competitive inhibition using GraFit software.
# glutaminyl cyclase (QC), sequence (Q16769 29-361): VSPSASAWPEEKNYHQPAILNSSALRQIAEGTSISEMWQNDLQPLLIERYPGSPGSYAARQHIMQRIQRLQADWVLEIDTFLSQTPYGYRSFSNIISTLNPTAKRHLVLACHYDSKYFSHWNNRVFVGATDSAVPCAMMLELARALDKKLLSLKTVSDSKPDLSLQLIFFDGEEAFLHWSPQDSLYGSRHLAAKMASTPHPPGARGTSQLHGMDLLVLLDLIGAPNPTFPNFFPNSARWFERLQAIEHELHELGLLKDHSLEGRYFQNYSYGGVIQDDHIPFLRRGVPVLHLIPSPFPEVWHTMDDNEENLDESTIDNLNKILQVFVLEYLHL
SMILES,IC50 [nM],Ki [nM]
Cc1cncn1CCCN/C(=N\C#N)Nc1ccc(C(C)C)cc1 [Example 2],550,91
"Cc1cncn1CCCN/C(=N/C#N)Nc1ccc(C#N)cc1 [Example 4, 2-cyano(4-cyanophenyl)-3-(3-(5-methyl-1H-imidazol-1-yl)propyl)guanidine]",1050,186
"Cc1cc(C)c(N/C(=N/C#N)NCCCn2cncc2C)c(C)c1 [Example 8, (3-(5-methyl-1H-imidazol-1-yl)propyl)-2-cyano-3-mesitylguanidine]",624,106
"Cc1cncn1CCCN/C(=N\C#N)Nc1ccc2ccccc2c1 [Example 10, (3-(5-methyl-1H-imidazol-1-yl)propyl)-2-cyano-3-(naphthalen-2-yl)guanidine]",1090,94
"Cc1cncn1CCCN/C(=N\C#N)Nc1cccc2ccccc12 [Example 11, (3-(5-methyl-1H-imidazol-1-yl)propyl)-2-cyano-3-(naphthalen-1-yl)guanidine]",610,103
"Cc1cncn1CCCN/C(=N\C#N)Nc1ccc2nsnc2c1 [Example 12, (3-(5-methyl-1H-imidazol-1-yl)propyl)-3-(benzo[c][1,2,5]thiadiazol-6-yl)-2-cyanoguanidine]",1340,132
"Cc1cncn1CCCN/C(=N\C#N)Nc1ccc2c(c1)OCO2 [Example 14, (benzo[d][1,3]dioxol-6-yl)-2-cyano-3-(3-(5-methyl-1H-imidazol-1-yl)propyl)guanidine]",590,110
"COc1ccc(N/C(=N/C#N)NCCCn2cncc2C)cc1 [Example 15, 2-cyano(4-methoxyphenyl)-3-(3-(5-methyl-1H-imidazol-1-yl)propyl)guanidine]",790,74
"COc1cc(N/C(=N/C#N)NCCCn2cncc2C)cc(OC)c1 [Example 16, 2-cyano(3,5-dimethoxyphenyl)-3-(3-(5-methyl-1H-imidazol-1-yl)propyl)guanidine]",726,125
"COc1cc(N/C(=N\C#N)NCCCn2cnc(C)c2)cc(OC)c1 [Example 18, 2-cyano(3,5-dimethoxyphenyl)-3-(3-(4-methyl-1H-imidazol-1-yl)propyl)guanidine]",12300,
"Cc1cc(C)c(N/C(=N/C#N)NCCCn2cnc(C)c2)c(C)c1 [Example 20, 2-cyano(mesityl)-3-(3-(4-methyl-1H-imidazol-1-yl)propyl)guanidine]",8500,1280

# Other lines, results leading:
IC50 [nM],Ki [nM],SMILES
620,170,"CCc1ccc(N/C(=N/C#N)NCCCn2cncc2C)cc1 [Example 1, 2-cyano(4-ethylphenyl)-3-(3-(5-methyl-1H-imidazol-1-yl)propyl)guanidine]"
1090,91,"CCOc1ccc(N/C(=N\C#N)NCCCn2cncc2C)cc1 [Example 6, 2-cyano(4-ethoxyphenyl)-3-(3-(5-methyl-1H-imidazol-1-yl)propyl)guanidine]"
5690,1330,"CCOc1ccc(N/C(=N\C#N)NCCCn2cnc(C)c2)cc1 [Example 17, 2-cyano(4-ethoxyphenyl)-3-(3-(4-methyl-1H-imidazol-1-yl)propyl)guanidine]"
14900,2310,"Cc1cn(CCCN/C(=N\C#N)Nc2ccc(C(C)C)cc2)cn1 [Example 21, 2-cyano(4-isopropylphenyl)-3-(3-(4-methyl-1H-imidazol-1-yl)propyl)guanidine]"
13900,2370,"CCc1ccc(N/C(=N/C#N)NCCCn2cnc(C)c2)cc1 [Example 22, 2-cyano(4-ethylphenyl)-3-(3-(4-methyl-1H-imidazol-1-yl)propyl)guanidine]"
13800,1690,"Cc1cn(CCCN/C(=N\C#N)Nc2cccc3ccccc23)cn1 [Example 23, 2-cyano(3-(4-methyl-1H-imidazol-1-yl)propyl)-3-(naphthalen-1-yl)guanidine]"
12200,2210,"Cc1cn(CCCN/C(=N/C#N)Nc2ccc3nsnc3c2)cn1 [Example 24, (benzo[c][1,2,5]thiadiazol-6-yl)-2-cyano-3-(3-(4-methyl-1H-imidazol-1-yl)propyl)guanidine]"
30100,,"Cc1cn(CCCN/C(=N/C#N)Nc2ccc(C#N)cc2)cn1 [Example 26, 2-cyano(4-cyanophenyl)-3-(3-(4-methyl-1H-imidazol-1-yl)propyl)guanidine]"
17100,2600,"Cc1cn(CCCN/C(=N/C#N)Nc2ccc(Cl)c(Cl)c2)cn1 [Example 27, (3,4-dichlorophenyl)-2-cyano-3-(3-(4-methyl-1H-imidazol-1-yl)propyl)guanidine]"
14400,2030,"COc1ccc(N/C(=N\C#N)NCCCn2cnc(C)c2)cc1 [Example 28, 2-cyano(4-methoxyphenyl)-3-(3-(4-methyl-1H-imidazol-1-yl)propyl)guanidine]"
10400,1580,"Cc1cn(CCCN/C(=N/C#N)Nc2ccc(-c3ccccc3)cc2)cn1 [Example 29, 2-cyano-1-[3-(4-methyl-1H-imidazol-1-yl)propyl]-4-phenylbenzene-1-guanidine]"
12400,1870,"Cc1cn(CCCN/C(=N/C#N)Nc2ccc3ccccc3c2)cn1 [Example 30, 2-cyano(3-(4-methyl-1H-imidazol-1-yl)propyl)-3-(naphthalen-2-yl)guanidine]"
